Test results as given in article PMC6736837, “^18F-labelled triazolyl-linked argininamides targeting the neuropeptide Y Y1R for PET imaging of mammary carcinoma” (Scientific Reports, 2019).

Columns and labels:
[1] = Octanol-water distribution coefficient logD7.4, shake flask method; type: physicochemical; settings: 1-octanol/PBS, pH 7.4, PBS/1-octanol, read-out: logD7.4 experimental
Experimental: The lipophilicity of the radioligands was determined by the distribution coefficient logD7.4. The respective radioligand (10 µL, about 25 kBq) was added to a mixture of PBS (500 µL) and 1-octanol (500 µL) and the emulsion was vortexed for 1 min. After centrifugation 3 × 100 µL were taken of each layer and analysed by a γ-counter. The partition coefficient was calculated as logD7.4=log(cpmoctanol/cpmPBS) . Data were expressed as mean values ± SD from three experiments.

[2] = Binding to human plasma proteins by gel filtration; type: in vitro ADME; settings: 37 °C, read-out: Free fraction in plasma
Experimental: The binding of ^18F-labelled compounds to plasma proteins was determined using gel filtration columns(illustra™ MicroSpin™ G-50 Columns, GE Healthcare Life Sciences, Freiburg). An aliquot of the radiotracer (approx. 100 kBq) was added to 200 µL of saline, and 100 µL of human plasma, respectively. Both samples were incubated at 37 °C for 10 min. MicroSpin™ columns were prepared according to the user instruction. Then 25 µL of the incubated radiotracer were given onto the columns and the devices were centrifuged (2000 × g, 2 min). Eluate and solid phase were analysed in the γ-counter (Wallac Wizard). The percentage of unbound radioligand was calculated as %free=cpmsolidphase/cpmsolidphase+cpmeluate . The sample in saline was used as control.

[3] = Radiotracer stability in human serum by radio-HPLC; type: in vitro ADME; settings: 37 °C
Experimental: The stability of ^18F-labelled compounds was determined in human serum. An aliquot of the radiotracer (5–10 MBq) was added to 200 µL human serum and incubated at 37 °C. Aliquots of 15 µL were taken after 5, 10, 15, 30, 45, 60, 120 and 180 min and quenched in 100 µL of 10% aqueous TFA. The samples were centrifuged (20000 × g, 2 min), and the supernatants were analysed by radio-HPLC (Chromolith RP-18e, 100 × 4.6 mm, 4 mL/min, 0–1 min 25% CH3CN (0.1% TFA) in water (0.1% TFA), 1–6 min 25–60%, 6–7 min 60–100%, 7–8 min 100%).

MCF-7-Y1 cells = test: Cellular accumulation assay in MCF-7-Y1 cells; type: cell-based, human; settings: nonspecific binding with 10 µM BIBP3226; [^18F]12 at 30 and 60 min
Experimental: MCF-7-Y1 is a subclone that originated in Prof. […] MCF-7-Y1 cells were cultivated in MEM Earle´s liquid medium with 2.2 g/L NaHCO3 (Merck Biochrom, Darmstadt) containing 10% FBS and 1% L-glutamine. All cells were cultured under sterile conditions in a humidified atmosphere containing 5% CO2 at 37 °C. Cells were routinely passaged twice a week.
The cellular accumulation of Y1R radioligands by MCF-7-Y1 cells was measured: On the day prior to the experiment, 300,000 cells per well were seeded into 24-well plates (Greiner Bio-One). Attached cells were washed twice with cold PBS and 450 µL of assay medium (cell culture medium containing 0.1% BSA) were added to the cells for total binding. For non-specific binding, 400 µL of assay medium and 50 µL of medium containing 10 µM BIBP3226 were added. Finally, 50 µL of medium containing approx. 15 kBq of the respective radiotracer were added to each well, and cells were incubated at 37 °C for 10, 30, 60 or 90 min. After incubation, cells were washed with 500 µL of ice-cold PBS and lysed with 600 µL of warm 1 M NaOH. The lysed cells were transferred to counting tubes and analysed in the γ-counter (Wallac Wizard, Perkin Elmer, Waltham, MA, USA). Separate tubes containing 50 µL of medium with the radiotracer (approx. 15 kBq) were analysed as reference samples. Experiments were performed in sextuplicate (n = 6).

[4] = Biodistribution in healthy mice; type: in vivo, mouse; settings: for kidney uptake: at 30 and 90 min p.i.
Experimental: Biodistribution studies were conducted using female NMRI outbred mice (HsdWin:NMRI) purchased from Envigo (Horst, The Netherlands). Mice were kept in groups of four to five animals in individually ventilated cages in a twelve hours dark/light cycle with unlimited access to water and standard chow. At the age of eight to nine weeks six animals per radiotracer were injected with 2–4 MBq of the respective radiotracer under isoflurane anesthesia. Mice were sacrificed by cervical dislocation 30 or 90 min p.i. of the radiotracer. Blood as well as the organs/tissues lung, liver, kidneys, heart, spleen, brain, muscle, intestines, gall bladder and bones were harvested and analysed in the γ-counter. Samples were weighed and radioactivity in different tissues was calculated as percentage of the total injected dose per gram tissue (%ID/g).

[5] = Radioactive metabolites of Y1R radioligands in mouse blood; type: in vivo; settings: for stability in the blood in vivo (in words): mouse blood samples taken early after radiotracer injection; for intact radioligand in blood samples: 5 min p.i.
Experimental: Nude mice were anesthetised with isoflurane and injected with the respective radiotracer (3–25 MBq) into the tail vein. After 5 min, animals were sacrificed by cervical dislocation and approx. 100 µL blood were collected from the abdomen and transferred into Li-heparinised Microvettes® (100 LH, Sarstedt). The same volume of aqueous urea (0.8 g/mL) was added and the Microvette® was centrifuged (2000 × g, 5 min). The supernatant was transferred to a 1.5 mL reaction vial, mixed with the same volume of 10% aqueous TFA and centrifuged (20000 × g, 5 min). This step was repeated once. A sample of the resulting supernatant (100 µL) was analysed by radio-HPLC using two methods (Chromolith RP-18e, 100 × 4.6 mm, 4 mL/min, 0–1 min 25% CH3CN (0.1%TFA) in water (0.1%TFA), 1–6 min 25–60%, 6–7 min 60–100%, 7–8 min 100%; Kromasil 100 C8 5 µm, 250 × 4.6 mm, 1.5 mL/min, 1–25 min 20–53.3% CH3CN (0.1% TFA) in water (0.1% TFA), 25–27 min 53.3–80%, 27–28 min 80–100%, 28–32 min 100%).

logD [1]	fraction unbound at 10 min [2]	Stability over 3 h in human serum [3]	uptake in the gall bladder ([4]; after 90 min)	kidney uptake [4]	stability in the blood in vivo (in words) [5]	intact radioligand in blood samples ([5]; mouse)	radiometabolites in the blood ([5]; mouse)	SMILES	specific accumulation in MCF-7-Y1 cells (total radioactivity in each well = 100%) (MCF-7-Y1 cells)
0.78 ± 0.005	0.42	>99%	up to 600 %ID/g	less than 5 %ID/g	higher stability in the blood in vivo	about 50%	–	N/C(=N/C(=O)NCc1cn([C@@H]2OC(C[18F])[C@@H](O)C(O)C2O)nn1)NCCC[C@@H](NC(=O)C(c1ccccc1)c1ccccc1)C(=O)NCc1ccc(O)cc1 (stereo partly drawn) [[^18F]11, (2R)‐5‐{[(1Z)‐Amino({[({1‐[(2R,5S)‐6‐([^18F]fluoromethyl)‐3,4,5‐trihydroxyoxan‐2‐yl]‐1H‐1,2,3‐triazol‐4‐yl}methyl)carbamoyl]imino})methyl]amino}‐2‐(2,2‐diphenylacetamido)‐N‐[(4‐hydroxyphenyl)-methyl]pentanamide]	almost no specific binding
1.49 ± 0.003	0.37	>99%	–	less than 5 %ID/g	underwent rapid degradation in the blood	less than 5%	> 90%	N/C(=N/C(=O)NCc1cn(CCOCCOCCOCC[18F])nn1)NCCC[C@@H](NC(=O)C(c1ccccc1)c1ccccc1)C(=O)NCc1ccc(O)cc1 [[^18F]13, (2R)‐5‐{[(1Z)‐Amino[({[1‐(2‐{2‐[2‐(2‐[^18F]fluoroethoxy)ethoxy]ethoxy}ethyl)‐1H‐1,2,3‐triazol‐4‐yl]methyl}carbamoyl)imino]methyl]amino}‐2‐(2,2‐diphenylacetamido)‐N‐[(4‐hydroxyphenyl)-methyl]pentanamide]	1%
